What was measured:
Assay in all cases: relative viability (nuclei count vs DMSO), 5 days (fraction); higher = more cells survive
Dactolisib + Phenformin = compound: Cn1c(=O)n(-c2ccc(C(C)(C)C#N)cc2)c2c3cc(-c4cnc5ccccc5c4)ccc3ncc21 [Dactolisib] + N=C(N)NC(=N)NCCc1ccccc1 [Phenformin] (partner 250 µM)
Summary of the method: (§1)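 Lung cancer cell lines in 1536-well plates were dosed by pin tool the day after seeding, either with one drug alone or with a fixed anchor-drug dose plus five library-drug doses (not always all listed) in √10 steps. After 5 days, cells were fixed and their nuclei stained in one step (final 0.05% Triton X-100, 1% formaldehyde, 1 ug/ml Hoechst), then counted on 4× images. Relative viability is the nuclei count in treated wells divided by that in vehicle wells. Values are medians of duplicate plates.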

Dactolisib = compound: Cn1c(=O)n(-c2ccc(C(C)(C)C#N)cc2)c2c3cc(-c4cnc5ccccc5c4)ccc3ncc21 [Dactolisib]
Summary of the method: (§2)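 Hoechst staining, done together with fixation and permeabilisation, marked nuclei for 4× imaging and MetaXpress counting. This followed 5 days without medium change after lung cancer cell lines, kept overnight at 37 °C in 1536-well plates, were pinned with five library-drug doses (not always all listed) spaced by √10 on vehicle-anchored plates. Viability is the ratio of treated-well to vehicle-well nuclei, expressed as a median across plates. Plates passed only at control CV below 25% with at least one doubling.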

AZ505 = compound: C1CCC(CC1)N(CCNCCC2=C3C(=C(C=C2)O)NC(=O)CO3)C(=O)CCNCCC4=CC(=C(C=C4)Cl)Cl [AZ505]
Summary of the method: as §2

AZ505 + Navitoclax = compound: C1CCC(CC1)N(CCNCCC2=C3C(=C(C=C2)O)NC(=O)CO3)C(=O)CCNCCC4=CC(=C(C=C4)Cl)Cl [AZ505] + CC1(C)CCC(c2ccc(Cl)cc2)=C(CN2CCN(c3ccc(C(=O)NS(=O)(=O)c4ccc(N[C@H](CCN5CCOCC5)CSc5ccccc5)c(S(=O)(=O)C(F)(F)F)c4)cc3)CC2)C1 [Navitoclax] (partner 0.5 µM)
Summary of the method: as §1

Cell Line	relative viability (Dactolisib + Phenformin; first compound 0.002 µM)	relative viability (Dactolisib + Phenformin; first compound 0.006325 µM)	relative viability (Dactolisib + Phenformin; first compound 0.02 µM)	relative viability (Dactolisib + Phenformin; first compound 0.06325 µM)	relative viability (Dactolisib + Phenformin; first compound 0.2 µM)	relative viability (Dactolisib; 0.002 µM)	relative viability (Dactolisib; 0.006325 µM)	relative viability (Dactolisib; 0.02 µM)	relative viability (Dactolisib; 0.06325 µM)	relative viability (Dactolisib; 0.2 µM)	relative viability (AZ505; 0.08 µM)	relative viability (AZ505; 0.253 µM)	relative viability (AZ505; 0.8 µM)	relative viability (AZ505; 2.53 µM)	relative viability (AZ505; 8 µM)	relative viability (AZ505 + Navitoclax; first compound 0.08 µM)	relative viability (AZ505 + Navitoclax; first compound 0.253 µM)	relative viability (AZ505 + Navitoclax; first compound 0.8 µM)	relative viability (AZ505 + Navitoclax; first compound 2.53 µM)	relative viability (AZ505 + Navitoclax; first compound 8 µM)
NCI-H2342	0.492	0.64	0.54	0.559	0.525	0.997	0.999	0.862	0.843	0.591	1.03	1.08	1.17	1.07	1.08	–	–	–	–	–
HCC-15	0.482	0.488	0.449	0.291	0.184	0.98	0.974	0.985	0.635	0.422	0.938	0.963	1.03	0.956	1.1	0.657	0.734	0.697	0.721	0.669
A-427	0.366	0.335	0.348	0.263	0.244	1.1	0.908	0.936	0.572	0.586	0.932	0.958	0.886	1.08	0.99	0.967	0.942	0.919	0.949	0.802
NCI-H2228	0.302	0.272	0.179	0.192	0.164	1.13	0.812	0.612	0.38	0.197	0.897	0.859	0.821	1.07	0.885	0.889	0.978	0.692	0.716	0.612
NCI-H1734	0.428	0.333	0.353	0.238	0.203	1.04	0.887	0.864	0.384	0.313	0.905	0.914	0.952	0.971	0.958	0.802	0.836	0.755	0.736	0.774
SK-LU-1	0.273	0.491	0.414	0.259	0.185	0.879	0.995	0.88	0.502	0.359	0.634	0.683	0.65	0.679	0.797	0.716	0.406	0.451	0.482	0.351
PC-14	0.642	0.523	0.45	0.29	0.144	1.05	1.01	0.836	0.33	0.182	0.915	0.96	0.947	0.955	1.04	0.999	1.07	0.974	0.95	0.997
NCI-H1915	0.376	0.387	0.391	0.344	0.327	1.02	1.03	1.02	0.657	0.579	0.954	1.06	0.945	0.942	0.949	0.749	0.781	0.733	0.783	0.763
NCI-H1666	0.593	0.53	0.577	0.544	0.559	1.09	0.926	0.957	0.746	0.639	0.899	0.978	0.974	0.973	0.961	0.969	1.06	0.99	0.896	0.894
HCC-366	0.602	0.625	0.587	0.397	0.151	0.975	1.04	1.05	0.734	0.569	0.982	0.956	0.99	0.897	1.01	1.03	0.948	1.02	1.12	1.06
SK-MES-1	0.667	0.662	0.627	0.388	0.212	1.1	0.983	0.914	0.542	0.339	0.92	0.953	0.909	0.943	0.935	1.13	1.19	1.29	1.14	1.31
NCI-H661	0.254	0.278	0.292	0.216	0.265	1.08	1.03	0.953	0.482	0.432	0.951	1.01	0.963	0.963	1	–	–	–	–	–
PC-3 [JPC-3]	0.494	0.485	0.475	0.47	0.469	1.11	1.03	1.03	0.898	0.664	0.956	0.978	0.974	0.926	1.07	0.76	0.817	0.768	0.84	0.802
NCI-H1623	0.618	0.628	0.561	0.585	0.438	1.14	0.968	0.918	0.531	0.402	0.894	1.03	0.984	0.937	1.04	–	–	–	–	–
